{"source": "patent US11236102B2", "about": "“Oxabicycloheptane prodrugs” (Lixte Biotechnology, Inc., priority 2015, dated 2022)", "key": {"[1]": {"experiment": "Pharmacokinetic study of 153 (iv, po) in SD rats: 153 and endothal in plasma, liver, brain", "type": "in vivo, SD rats", "conditions": "for Endothal plasma concentration: individual rats", "procedure": "The blood, liver and brain tissue samples were collected at predetermined times from rats. […] Compound were diluted shortly before use in 4% sodium bicarbonate for sterile injection (this is the standard pediatric solution of NaHCO3 with a pH of about 8.5).\nCompound 153 was freshly prepared by diluting the drugs shortly before use in 4% sodium bicarbonate for sterile injection (this is the standard pediatric solution of NaHCO3 with a pH of about 8.5). The final concentrations of 153 solutions were 0.25 mg/mL. The 153 solutions were administered via iv or po route at dose volume of 5 ml/kg according to the latest body weight. Compound 157 was freshly prepared by diluting the drugs shortly before use in 4% sodium bicarbonate for sterile injection (this is the standard pediatric solution of NaHCO3 with a pH of about 8.5). The final concentrations of […] solutions were 0.3 mg/mL. The 157 solutions were administered via iv or po route at dose volume of 5 ml/kg according to the latest body weight.\nTwelve (12) female SD rats per group were dosed by iv with 153 or 157. The rats were fasted overnight prior to dosing, with free access to water. Foods were withheld for 2 hours post-dose. Blood, liver and brain tissue samples in two animals each group were collected at each time point, within 10% of the scheduled time for each time point. Two extra animals were used for analytic method development.\nBlood (>0.3 mL) were collected via aorta abdominalis in anaesthetic animals into tubes containing heparin at 15 min, 1, 2, 6, 10 and 24 hours after iv administration. Liver and brain tissues were collected immediately after animal death. The liver and brain tissues were excised and rinsed with cold saline to avoid blood residual. Upon collection, each sample was placed on ice and the blood samples were subsequently centrifuged (4° C., 11000 rpm, 5 min) to separate plasma.\nThe obtained plasma, liver and brain tissue samples were stored at −70° C. until LC-MS/MS analysis.\nTwo (2) female SD rats per group were dosed by po with 153 or 157. The rats were fasted overnight prior to dosing, with free access to water. Foods were withheld for 2 hours post-dose. Blood samples (>0.3 mL) were collected via aorta abdominalis in anaesthetic animals into tubes containing heparin at 30 min, 1, 2, 6, 10 and 24 hours after po administration.\nTo each sample, 20 μL IS-D (for blank samples, 20 μL acetonitrile:water (1:1) was added) and 300 μl acetonitrile was added. The sample mixture was vortexed for approximately 3 min. After centrifugation at 10000 rpm for 5 min at 4° C., 100 μL of the upper layer was transferred to a new tube and added 200 μL 0.4% formic acid in water (pH 6.0). The mixture was vortexed for approximately 3 min before injected onto the LC/MS/MS system for analysis.\nOn the day of the assay, the frozen liver and brain samples were thawed unassisted at room temperature. An about 200 mg weighed sample of each thawed tissue was placed into a plastic tube with water (0.6 mL) to facilitate homogenization. Tissue processing was conducted using a homogenizer for approximately 1 min, 200 μl homogenate was transferred into a fresh Eppendorf tube. To each tube, 50 μL IS-D was added and mixed. Then 600 ul acetonitrile was added and the sample mixture was vortexed for approximately 3 min. After centrifugation at 10000 rpm for 5 min at 4° C., 400 μL of the upper layer was transferred to a new tube and evaporate the supernatant to dryness at 35° C. Reconstitute the residue with 200 μL of 0.4% formic acid in water (pH6.0), and vortex for 3 min, submit for LC-MS/MS analysis.\nFrozen unknown plasma samples were completely thawed at room temperature and vortexed thoroughly. With a pipette, 50 μL of plasma was transferred into a 2.0 mL Eppendorf tube. 50 μL of 0.1N HCl and 800 μL ethyl acetate were added into each sample. The sample mixture was vortexed for approximately 3 min."}, "[2]": {"experiment": "Liver S9 stability and metabolite formation", "type": "in vitro ADME, rat, dog, monkey and human", "conditions": "presence and absence of NADPH, cross species", "procedure": "(§1) The stability (whole blood, liver S9, SGF, SIF, and PBS buffer) and MDCK-MDR1 monolayer permeability of LB100, LB-100 Carbonate and LB-100 POM were evaluated.\n(§2) Samples were analyzed by LC-MS/MS using a SCIEX QTrap 5500 mass spectrometer coupled with an Agilent 1290 HPLC Infinity series, a CTC PAL chilled autosampler, all controlled by Analyst software. After separation on a C18 reverse phase HPLC column (Acquity UPLC HSS T3, 1.8, 2.1×50 mm) using an acetonitrile-water gradient system, peaks were analyzed by mass spectrometry (MS) using […] ionization in MRM mode.\nExperimental Procedure: Test agent is incubated in duplicate with liver S9 at 37° C. The reaction contains liver S9 protein in 100 mM potassium phosphate, 2 mM NADPH, 3 mM MgCl2, pH 7.4. A control is run for each test agent omitting NADPH to detect NADPH-free degradation. At indicated times, an aliquot is removed from each experimental and control reaction and mixed with an equal volume of ice-cold Stop Solution (methanol, containing internal standard propranolol). Stopped reactions are incubated for 10 minutes at −20° C. Samples are centrifuged to remove precipitated protein, and supernatants are analyzed by LC/MS/MS to quantitate remaining parent and the formation of metabolites. Data are reported as % remaining by dividing by the time zero concentration value."}, "[3]": {"experiment": "Whole blood stability (half-life) and metabolite formation", "type": "in vitro ADME, rat, dog, monkey and human", "conditions": "cross species", "procedure": "as §1, §2\nWhole Blood Stability: Experimental Conditions Experimental Procedure: The stock solution was first diluted in acetonitrile at a concentration that is 100× of the desired final concentration. It was incubated in duplicate with whole blood at 37° C. At indicated times, an aliquot was removed from each experimental and control reaction and mixed with three volumes of ice-cold Stop Solution (methanol containing propranolol as internal standard). Stopped reactions were incubated at least ten minutes at −20° C. The samples were centrifuged to remove precipitated protein, and the supernatants were analyzed by LC-MS/MS to quantitate the remaining parent and the formation of metabolites.\nData were converted to % remaining by dividing by the time zero concentration value. Data were fit to a first-order decay model to determine half-life."}, "[4]": {"experiment": "Oral absorption / oral bioavailability of 151 and 100", "conditions": "rat, in vivo"}}, "note": "Entries after “also recorded” stand apart in the source; their conditions may differ."}
{"compound": "O=C(O)C1C2CCC(O2)C1C(=O)O", "note": "(stereo not shown) [Endothal, 7-oxabicyclo[2.2.1]heptane-2,3-dicarboxylic acid]", "values": [{"measurement": "detectability in brain samples", "setting": "[1]; endothal after single iv 153 at 1.25 mg/kg, 1.25 mg/kg", "result": "not detectable; also recorded: undetectable"}, {"measurement": "Cmax", "setting": "[1]; female, SD, rat, in vivo, po, 1.25 mg/kg", "result": 46.9, "unit": "ng/mL"}, {"measurement": "AUC", "setting": "[1]; female, Sprague-Dawley, rat, in vivo, iv, 1.25 mg/kg", "result": 378, "unit": "ng·h/mL"}, {"measurement": "Endothal plasma concentration", "setting": "[1]; iv administration of 153, 10 hr", "result": "BLQ"}, {"measurement": "Endothal plasma concentration", "setting": "[1]; iv administration of 153, 24 hr", "result": "BLQ"}, {"measurement": "Endothal plasma concentration", "setting": "[1]; po administration of 153, 10 hr", "result": "BLQ"}, {"measurement": "AUClast in liver", "setting": "[1]; rat, in vivo, iv, 1.25 mg/kg", "result": 10820, "unit": "ng·h/g"}]}
{"compound": "COC(=O)C1C2CCC(O2)C1C(=O)N1CCN(C)CC1", "note": "(stereo not shown) [Compound 151]", "values": [{"measurement": "metabolites observed in liver S9 stability study", "setting": "[2]", "result": "No metabolites were observed"}, {"measurement": "metabolite formation in whole blood half-life study", "setting": "[3]", "result": "No metabolites were detected"}, {"measurement": "bioavailability", "setting": "[4]", "result": "~60", "unit": "%"}]}
